Data reported in patent publication US20260022142A1, “MACROCYCLIC IMMUNOMODULATORS” (Bristol-Myers Squibb Company, priority 2022, published 2026).
Bridge positions count the residues as written; N and C are the ends. Square brackets hold non-standard residues; d marks the D form. Peptide text beside a SMILES is read from it. * marks the point of attachment. ξ: configuration not given here. Phe(4-CONH2) = NC(=O)c1ccc(C[C@H](N)C(=O)O)cc1; Phe(4-COOH) = N[C@@H](Cc1ccc(C(=O)O)cc1)C(=O)O; Bip = N[C@@H](Cc1ccc(-c2ccccc2)cc1)C(=O)O; Phe(3-Me) = Cc1cccc(C[C@H](N)C(=O)O)c1; NH(CH2)12COOH = O=C(O)CCCCCCCCCCCCN*; Val(3-OH) = CC(C)(O)[C@H](N)C(=O)O; hArg = N=C(N)NCCCC[C@H](N)C(=O)O; 4Pal = N[C@@H](Cc1ccncc1)C(=O)O; Cha = N[C@@H](CC1CCCCC1)C(=O)O; Cit = NC(=O)NCCC[C@H](N)C(=O)O; Thr(3ξ) = CC(O)[C@H](N)C(=O)O; Pen = CC(C)(S)[C@H](N)C(=O)O; 12Ado = NCCCCCCCCCCCC(=O)O; hSer = N[C@@H](CCO)C(=O)O; Carboxymethyl = O=C(O)C*; Orn = NCCC[C@H](N)C(=O)O; Aun = NCCCCCCCCCCC(=O)O; Dab = NCC[C@H](N)C(=O)O; Nva = CCC[C@H](N)C(=O)O; Dap = NC[C@H](N)C(=O)O; AEEA = NCCOCCOCC(=O)O

Target: T1, PD-1/PD-L1 interaction (PE-labeled human PD-L1-Ig binding to Jurkat cell line over-expressing human PD-1) (Homo sapiens, UniProt Q15116)
T1 construct: expressed in transfected cells; host or cells: Jurkat
T1 sequence (Q15116 25-288): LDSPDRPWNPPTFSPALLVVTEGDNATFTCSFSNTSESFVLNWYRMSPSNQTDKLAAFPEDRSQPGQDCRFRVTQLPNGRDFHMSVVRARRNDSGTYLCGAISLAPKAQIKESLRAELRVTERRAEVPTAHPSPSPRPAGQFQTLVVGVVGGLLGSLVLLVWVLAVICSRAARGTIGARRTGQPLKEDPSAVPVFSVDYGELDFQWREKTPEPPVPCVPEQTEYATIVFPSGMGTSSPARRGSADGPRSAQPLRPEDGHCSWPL
Assay: Jurkat-PD-1 Cell Binding High-Content Screening Assay (CBA)
Assay type: cell-based
Details: Jurkat cell line over-expressing human PD-1; PE-labeled PD-L1-Ig 20 nM final; read-out: Jurkat hPD1-PDL1 IC50
Procedure, shortened: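 First, compound is added to PD-1-expressing Jurkat cells in serum-containing DMEM and left 2 h at 37° C. Next, PE-conjugated PD-L1-Ig is introduced at 20 nM final concentration for 1 hour. Finally, cells are fixed in 4% paraformaldehyde with Hoechst 33342, washed and imaged.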

| IC50 | Structure (SMILES) |
| --- | --- |
| 8 nM | Cc1cccc(C[C@@H]2NC(=O)[C@H](CC(=O)O)NC(=O)[C@H](Cc3ccc(OCC(=O)O)cc3)NC(=O)[C@H](CCCCNC(=N)N)NC(=O)CSC[C@@H](C(=O)N[C@@H](CCCN)C(=O)N[C@@H](CO)C(=O)NCCCCCCCCCCC(=O)O)NC(=O)[C@H](C(C)O)NC(=O)[C@H](C(C)C)NC(=O)[C@H](CC3CCCCC3)NC(=O)[C@H](CCN)NC(=O)[C@@H](CC(C)C)NC(=O)[C@H](CCCN)NC(=O)[C@H](C(C)C)NC(=O)[C@H](Cc3ccc(-c4ccccc4)cc3)NC(=O)[C@H](C(C)C)NC2=O)c1 (stereo partly drawn) [Compound 3268] ({CH2CO}-[hArg]Y(Carboxymethyl)D[Phe(3-Me)]V[Bip]V[Orn][dL][Dab][Cha]V[Thr(3ξ)]C[Orn]S[Aun]-OH; thioether N-14) |
| 20.4 nM | CCC[C@@H]1NC(=O)CSC[C@@H](C(=O)N[C@@H](CCN)C(=O)NCCOCCOCC(=O)NCCCCCCCCCCC(=O)O)NC(=O)[C@H](CCC(=O)O)NC(=O)[C@H](CO)NC(=O)[C@H](CC2CCCCC2)NC(=O)[C@H](CCN)NC(=O)[C@@H](CC(C)C)NC(=O)[C@H](CCCN)NC(=O)[C@H](Cc2ccc(OCC(=O)O)cc2)NC(=O)[C@H](Cc2ccc(-c3ccccc3)cc2)NC(=O)[C@H](Cc2ccc(OCC(=O)O)cc2)NC(=O)[C@H](Cc2cccc(C)c2)NC(=O)[C@H](CC(=O)O)NC(=O)[C@H](Cc2ccc(OCC(=O)O)cc2)NC1=O [Compound 3807] ({CH2CO}-[Nva]Y(Carboxymethyl)D[Phe(3-Me)]Y(Carboxymethyl)[Bip]Y(Carboxymethyl)[Orn][dL][Dab][Cha]SEC[Dab][AEEA][Aun]-OH; thioether N-14) |
| 16.9 nM | Cc1cccc(C[C@@H]2NC(=O)[C@H](CC(=O)O)NC(=O)[C@H](Cc3ccc(OCC(=O)O)cc3)NC(=O)[C@H](CCCCNC(=N)N)NC(=O)CSC[C@@H](C(=O)N[C@@H](CCN)C(=O)N[C@@H](CO)C(=O)NCCCCCCCCCCCC(=O)O)NC(=O)[C@H](CO)NC(=O)[C@H](C(C)C)NC(=O)[C@H](CC3CCCCC3)NC(=O)[C@H](CCN)NC(=O)[C@@H](CC(C)C)NC(=O)[C@H](CCCN)NC(=O)[C@H](CCCNC(=N)N)NC(=O)[C@H](Cc3ccc(-c4ccccc4)cc3)NC(=O)[C@H](C(C)C)NC2=O)c1 [Compound 3571] ({CH2CO}-[hArg]Y(Carboxymethyl)D[Phe(3-Me)]V[Bip]R[Orn][dL][Dab][Cha]VSC[Dab]S[12Ado]-OH; thioether N-14) |
| 30.3 nM | Cc1cccc(C[C@@H]2NC(=O)[C@H](CC(=O)O)NC(=O)[C@H](Cc3ccc(OCC(=O)O)cc3)NC(=O)[C@H](C(C)O)NC(=O)CSC[C@@H](C(=O)N[C@@H](CCN)C(=O)NCCCCCCCCCCC(=O)O)NC(=O)[C@H](C(C)O)NC(=O)[C@H](C(C)(C)O)NC(=O)[C@H](CC3CCCCC3)NC(=O)[C@H](Cc3cnc[nH]3)NC(=O)[C@@H](CC(C)C)NC(=O)[C@H](CCCN)NC(=O)[C@H](Cc3ccc(O)cc3)NC(=O)[C@H](Cc3ccc(-c4ccccc4)cc3)NC(=O)[C@H](Cc3ccc(C(N)=O)cc3)NC2=O)c1 (stereo partly drawn) [Compound 3729] ({CH2CO}-[Thr(3ξ)]Y(Carboxymethyl)D[Phe(3-Me)][Phe(4-CONH2)][Bip]Y[Orn][dL]H[Cha][Val(3-OH)][Thr(3ξ)]C[Dab][Aun]-OH; thioether N-14) |
| 250 nM | Cc1cccc(C[C@@H]2NC(=O)[C@H](CC(=O)O)NC(=O)[C@H](Cc3ccc(OCC(=O)O)cc3)NC(=O)[C@H](Cc3ccncc3)NC(=O)CSC[C@@H](C(=O)N[C@@H](CCN)C(=O)NCCOCCOCC(=O)NCCOCCOCC(=O)NCCCCCCCCCCCCC(=O)O)NC(=O)[C@H](CCC(=O)O)NC(=O)[C@H](C(C)C)NC(=O)[C@H](CC3CCCCC3)NC(=O)[C@H](CCN)NC(=O)[C@@H](CC(C)C)NC(=O)[C@H](CCCN)NC(=O)[C@H](Cc3ccc(C(=O)O)cc3)NC(=O)[C@H](Cc3ccc(-c4ccccc4)cc3)NC(=O)[C@H](Cc3ccc(C(=O)O)cc3)NC2=O)c1 [Compound 3754] ({CH2CO}-[4Pal]Y(Carboxymethyl)D[Phe(3-Me)][Phe(4-COOH)][Bip][Phe(4-COOH)][Orn][dL][Dab][Cha]VEC[Dab][AEEA][AEEA]-{NH(CH2)12COOH}; thioether N-14) |
| 10.5 nM | Cc1cccc(C[C@@H]2NC(=O)[C@H](CC(=O)O)NC(=O)[C@H](Cc3ccc(OCC(=O)O)cc3)NC(=O)[C@H](Cc3ccncc3)NC(=O)CSC[C@@H](C(=O)N[C@@H](CCN)C(=O)NCCOCCOCC(=O)NCCCCCCCCCCC(=O)O)NC(=O)[C@H](CCC(=O)O)NC(=O)[C@H](C(C)(C)O)NC(=O)[C@H](CC3CCCCC3)NC(=O)[C@H](CCN)NC(=O)[C@@H](CC(C)C)NC(=O)[C@H](CCC(N)=O)NC(=O)[C@H](Cc3ccc(C(=O)O)cc3)NC(=O)[C@H](Cc3ccc(-c4ccccc4)cc3)NC(=O)[C@H](Cc3ccc(C(=O)O)cc3)NC2=O)c1 [Compound 3748] ({CH2CO}-[4Pal]Y(Carboxymethyl)D[Phe(3-Me)][Phe(4-COOH)][Bip][Phe(4-COOH)]Q[dL][Dab][Cha][Val(3-OH)]EC[Dab][AEEA][Aun]-OH; thioether N-14) |
| 37.9 nM | Cc1cccc(C[C@@H]2NC(=O)[C@H](CC(=O)O)NC(=O)[C@H](Cc3ccncc3)NC(=O)[C@H](Cc3ccc(OCC(=O)O)cc3)NC(=O)CSC[C@@H](C(=O)NCCOCCOCC(=O)N[C@@H](CCN)C(=O)NCCCCCCCCCCC(=O)O)NC(=O)[C@H]([C@@H](C)O)NC(=O)[C@H](C(C)C)NC(=O)[C@H](CC3CCCCC3)NC(=O)[C@H](CCN)NC(=O)[C@@H](CC(C)C)NC(=O)[C@H](CCCN)NC(=O)[C@H](C(C)C)NC(=O)[C@H](Cc3ccc(-c4ccccc4)cc3)NC(=O)[C@H](C(C)C)NC2=O)c1 [Compound 1170] ({CH2CO}-Y(Carboxymethyl)[4Pal]D[Phe(3-Me)]V[Bip]V[Orn][dL][Dab][Cha]VTC[AEEA][Dab][Aun]-OH; thioether N-14) |
| 18 nM | Cc1cccc(C[C@@H]2NC(=O)[C@H](CC(=O)O)NC(=O)[C@H](Cc3ccc(OCC(=O)O)cc3)NC(=O)[C@H](CN)NC(=O)CSC[C@@H](C(=O)NCCOCCOCC(=O)N[C@@H](CCN)C(=O)NCCCCCCCCCCC(=O)O)NC(=O)[C@H](CN)NC(=O)[C@H](C(C)C)NC(=O)[C@H](CC3CCCCC3)NC(=O)[C@H](CCN)NC(=O)[C@@H](CC(C)C)NC(=O)[C@H](CCCN)NC(=O)[C@H](CCC(=O)O)NC(=O)[C@H](Cc3ccc(-c4ccccc4)cc3)NC(=O)[C@H](C(C)C)NC2=O)c1 [Compound 2658] ({CH2CO}-[Dap]Y(Carboxymethyl)D[Phe(3-Me)]V[Bip]E[Orn][dL][Dab][Cha]V[Dap]C[AEEA][Dab][Aun]-OH; thioether N-14) |
| 14.9 nM | CC(C)C[C@H]1NC(=O)[C@H](CCCN)NC(=O)[C@H](C(C)C)NC(=O)[C@H](Cc2ccc(-c3ccccc3)cc2)NC(=O)[C@H](C(C)C)NC(=O)[C@H](Cc2c[nH]c3ccccc23)NC(=O)[C@H](CC(=O)O)NC(=O)[C@H](Cc2ccc(OCC(=O)O)cc2)NC(=O)[C@H](CCCCNC(=N)N)NC(=O)CSC[C@@H](C(=O)NCCOCCOCC(=O)N[C@@H](CCCCN)C(=O)NCCCCCCCCCCCC(=O)O)NC(=O)[C@H](CO)NC(=O)[C@H](C(C)C)NC(=O)[C@H](CC2CCCCC2)NC(=O)[C@H](CCN)NC1=O [Compound 3154] ({CH2CO}-[hArg]Y(Carboxymethyl)DWV[Bip]V[Orn][dL][Dab][Cha]VSC[AEEA]K[12Ado]-OH; thioether N-14) |
| 23.3 nM | Cc1cccc(C[C@@H]2NC(=O)[C@H](CC(=O)O)NC(=O)[C@H](Cc3ccc(OCC(=O)O)cc3)NC(=O)[C@H](CCCNC(=N)N)NC(=O)CSC[C@@H](C(=O)N[C@@H](CCN)C(=O)NCCCCCCCCCCC(=O)O)NC(=O)[C@H](CCC(=O)O)NC(=O)[C@H](C(C)C)NC(=O)[C@H](CC3CCCCC3)NC(=O)[C@H](CCN)NC(=O)[C@@H](CC(C)C)NC(=O)[C@H](CCN)NC(=O)[C@H](Cc3ccc(O)cc3)NC(=O)[C@H](Cc3ccc(-c4ccccc4)cc3)NC(=O)[C@H](C(C)C)NC2=O)c1 [Compound 2818] ({CH2CO}-RY(Carboxymethyl)D[Phe(3-Me)]V[Bip]Y[Dab][dL][Dab][Cha]VEC[Dab][Aun]-OH; thioether N-14) |
| 336 nM | Cc1cccc(C[C@@H]2NC(=O)[C@H](CC(=O)O)NC(=O)[C@H](Cc3ccc(OCC(=O)O)cc3)NC(=O)[C@H](CN)NC(=O)CSC(C)(C)[C@@H](C(=O)N[C@@H](C)C(=O)N[C@@H](CCC(=O)O)C(=O)NCCCCCCCCCCC(=O)O)NC(=O)[C@H]([C@@H](C)O)NC(=O)[C@H](C(C)C)NC(=O)[C@H](CC3CCCCC3)NC(=O)[C@H](CCN)NC(=O)[C@@H](CC(C)C)NC(=O)[C@H](CCCN)NC(=O)[C@H](CCCNC(N)=O)NC(=O)[C@H](Cc3ccc(-c4ccccc4)cc3)NC(=O)[C@H](C(C)C)NC2=O)c1 [Compound 2782] ({CH2CO}-[Dap]Y(Carboxymethyl)D[Phe(3-Me)]V[Bip][Cit][Orn][dL][Dab][Cha]VT[Pen]AE[Aun]-OH; thioether N-14) |
| 9.5 nM | Cc1cccc(C[C@@H]2NC(=O)[C@H](CC(=O)O)NC(=O)[C@H](Cc3ccc(OCC(=O)O)cc3)NC(=O)[C@H](CCCNC(=N)N)NC(=O)CSC[C@@H](C(=O)N[C@@H](CCN)C(=O)NCCCCCCCCCCC(=O)O)NC(=O)[C@H](CCO)NC(=O)[C@H](C(C)C)NC(=O)[C@H](CC3CCCCC3)NC(=O)[C@H](CCN)NC(=O)[C@@H](CC(C)C)NC(=O)[C@H](CCCN)NC(=O)[C@H](Cc3ccc(O)cc3)NC(=O)[C@H](Cc3ccc(-c4ccccc4)cc3)NC(=O)[C@H](Cc3ccc(OCC(=O)O)cc3)NC2=O)c1 [Compound 2095] ({CH2CO}-RY(Carboxymethyl)D[Phe(3-Me)]Y(Carboxymethyl)[Bip]Y[Orn][dL][Dab][Cha]V[hSer]C[Dab][Aun]-OH; thioether N-14) |
